Data as given in patent publication US10221174B2, “N-(phenylsulfonyl)benzamides and related compounds as BCL-2 inhibitors” (THE REGENTS OF THE UNIVERSITY OF MICHIGAN, priority 2016, dated 2019).
Read-outs that look alike come from different tables or passages of the source.

Columns and labels:
Pharmacokinetics in rats = type: in vivo
Experimental: The pharmacokinetics of ABT-199 and representative Compounds of the Disclosure were evaluated in rats at an IV dose of 2 mg/kg and an oral dose of 20 mg/kg.

RS4;11 cells = test: RS4;11 cell viability, CCK-8 assay; type: cell-based; conditions: Homo sapiens, RS4-11, 96 h, CCK-8, 4 days, read-out: RS4, 11 IC50 (Bcl-2 dependent)
Experimental: RS4;11 cells were obtained from American Type Culture Collection (ATCC). They were used within three months of thawing fresh vials. Cells were maintained in the recommended culture medium with 10% FBS at 37° C. and an atmosphere of 5% CO2.
The effect of representative Compounds of the Disclosure on cell viability was determined using Cell Counting Kit-8 (CCK-8) assay (Dojindo, Rockville, Md.) according to the manufacturer's instructions. 200 μL of a RS4;11 cell suspension (10000 cells/well) in culture medium were seeded into 96-well plates and cultured overnight. Each tested compound was serially diluted in culture medium, and 20 μL of the compound dilution was added to the corresponding well of the cell plate. After the addition of the tested compound, the cells were incubated at 37° C. in an atmosphere of 5% CO2 for 4 days. At the end of 4 days, 10 μL of CCK-8 solution was added to each well of the plate and incubated for 1-4 hours. The plates were read at 450 nm on the microplate spectrophotometer (Epoch2, BioTek). The readings were normalized to the vehicle cells, and the IC50 was calculated by nonlinear regression analysis using GraphPad Prism 5 software.

MV4;11 cell line = test: MV4;11 inhibition; type: cell-based

IC50 (RS4;11 cells)	IC50 (MV4;11 cell line; Homo sapiens, MV4-11)	Structure (SMILES)	also measured
22 nM	–	O=C(NS(=O)(=O)c1ccc(NC[C@@H]2COCCO2)c([N+](=O)[O-])c1)c1ccc(C2=CCN(CC3=C(c4ccc(Cl)cc4)CC4(CC3)COC4)CC2)cc1Oc1cnc2[nH]ccc2c1 [Cpd. No. 5, (R)-N-((4-(((1,4-dioxan-2-yl)methyl)amino)-3-nitrophenyl)sulfonyl)-2-((1H-pyrrolo[2,3-b]pyridin-5-yl)oxy)-4-(1-((6-(4-chlorophenyl)-2-oxaspiro[3.5]non-6-en-7-yl)methyl)-1,2,3,6-tetrahydropyridin-4-yl)benzamide]	–
1090 nM	5150 nM	O=C(NS(=O)(=O)c1cc([N+](=O)[O-])n(CC2CCOCC2)c1)c1ccc(N2CCN(CC3=C(c4ccc(Cl)cc4)CC4(CCC4)CC3)CC2)cc1Oc1cnc2[nH]ccc2c1 [Cpd. No. 25, 2-((1H-pyrrolo[2,3-b]pyridin-5-yl)oxy)-4-(4-((6-(4-chlorophenyl)spiro[3.5]non-6-en-7-yl)methyl)piperazin-1-yl)-N-((5-nitro-1-((tetrahydro-2H-pyran-4-yl)methyl)-1H-pyrrol-3-yl)sulfonyl)benzamide]	–
19 nM	54.6 nM	O=C(NS(=O)(=O)C1=CC2C(=O)N(C3CCOCC3)CC2C([N+](=O)[O-])=C1)c1ccc(N2CCN(CC3=C(c4ccc(Cl)cc4)CC4(CCC4)CC3)CC2)cc1Oc1cnc2[nH]ccc2c1 (stereo not shown) [compound 23, 2-((1H-pyrrolo[2,3-b]pyridin-5-yl)oxy)-4-(4-((6-(4-chlorophenyl)spiro[3.5]non-6-en-7-yl)methyl)piperazin-1-yl)-N-((7-nitro-3-oxo-2-(tetrahydro-2H-pyran-4-yl)-2,3,3a,7a-tetrahydro-1H-isoindol-5-yl)sulfonyl)benzamide]	–
–	243000 nM	O=C(NS(=O)(=O)c1cc([N+](=O)[O-])n(CCC2CCOCC2)c1)c1ccc(N2CCN(CC3=C(c4ccc(Cl)cc4)CC4(CCC4)CC3)CC2)cc1Oc1cnc2[nH]ccc2c1 [compound 24, 2-((1H-pyrrolo[2,3-b]pyridin-5-yl)oxy)-4-(4-((6-(4-chlorophenyl)spiro[3.5]non-6-en-7-yl)methyl)piperazin-1-yl)-N-((5-nitro-1-(2-(tetrahydro-2H-pyran-4-yl)ethyl)-1H-pyrrol-3-yl)sulfonyl)benzamide]	–
5.2 nM	16.9 nM	O=C(NS(=O)(=O)c1ccc(NC[C@H]2COCCO2)c([N+](=O)[O-])c1)c1ncc(N2CCN(CC3=C(c4ccc(Cl)cc4)CC4(CCC4)CC3)CC2)cc1Oc1cnc2[nH]ccc2c1 [compound 27, (S)-N-((4-(((1,4-dioxan-2-yl)methyl)amino)-3-nitrophenyl)sulfonyl)-3-((1H-pyrrolo[2,3-b]pyridin-5-yl)oxy)-5-(4-((6-(4-chlorophenyl)spiro[3.5]non-6-en-7-yl)methyl)piperazin-1-yl)picolinamide]	–
968 nM	1300 nM	O=C(NS(=O)(=O)c1ccc(NC[C@H]2COCCO2)c([N+](=O)[O-])c1)c1ccc(N2CCN(CC3=C(c4ccc(Cl)cc4)CC4(CCC4)CC3)CC2)nc1Oc1cnc2[nH]ccc2c1 [compound 28, (S)-N-((4-(((1,4-dioxan-2-yl)methyl)amino)-3-nitrophenyl)sulfonyl)-2-((1H-pyrrolo[2,3-b]pyridin-5-yl)oxy)-6-(4-((6-(4-chlorophenyl)spiro[3.5]non-6-en-7-yl)methyl)piperazin-1-yl)nicotinamide]	–

The next lines start with the compound.

Structure (SMILES)	IC50 (RS4;11 cells)	IC50 (MV4;11 cell line; Homo sapiens, MV4-11)	also measured
CC1(C)CCC(CN2CCN(c3ccc(C(=O)NS(=O)(=O)c4ccc(NCC5CCOCC5)c([N+](=O)[O-])c4)c(Oc4cnc5[nH]ccc5c4)c3)CC2)=C(c2ccc(Cl)cc2)C1 [ABT-199, Venetoclax, reference compound]	–	–	AUC0-∞ IV (Pharmacokinetics in rats; IV 2 mg/kg): 5446 n · gh/mL; AUC0-∞ PO (Pharmacokinetics in rats; oral 20 mg/kg): 20812 n · gh/mL; F(AUC0-t) (Pharmacokinetics in rats; oral 20 mg/kg vs IV 2 mg/kg): 38.2%; MRT inf (Pharmacokinetics in rats; rat, in vivo, IV 2 mg/kg): 1.23 h; AUC(0-t) (Pharmacokinetics in rats; rat, in vivo, IV 2 mg/kg, read-out: AUC0-t IV): 5440 ng·h/mL; clearance (Pharmacokinetics in rats; rat, in vivo, IV 2 mg/kg, read-out: CL (iv) (converted)): 6.57 mL/min/kg; Cmax (Pharmacokinetics in rats; rat, in vivo, IV 2 mg/kg, read-out: Cmax IV): 8740 ng/mL; Tmax (Pharmacokinetics in rats; rat, in vivo, IV 2 mg/kg, read-out: Tmax IV): 0.083 h; Vd (Pharmacokinetics in rats; rat, in vivo, IV 2 mg/kg, read-out: Vss (iv)): 0.496 L/kg; half-life (Pharmacokinetics in rats; rat, in vivo, IV 2 mg/kg, read-out: t1/2 IV (converted)): 4.32 h; AUC(0-t) (Pharmacokinetics in rats; rat, in vivo, oral 20 mg/kg, read-out: AUC0-t PO): 20800 ng·h/mL; Cmax (Pharmacokinetics in rats; rat, in vivo, oral 20 mg/kg, read-out: Cmax PO): 6000 ng/mL; Tmax (Pharmacokinetics in rats; rat, in vivo, oral 20 mg/kg, read-out: Tmax PO): 1.67 h; half-life (Pharmacokinetics in rats; rat, in vivo, oral 20 mg/kg, read-out: t1/2 PO (converted)): 3.22 h
O=C(NS(=O)(=O)c1cc(F)c(NC[C@H]2COCCO2)c([N+](=O)[O-])c1)c1ccc(N2CCN(CC3=C(c4ccc(Cl)cc4)CC4(CCC4)CC3)CC2)cc1Oc1cnc2[nH]ccc2c1 [Cpd. No. 40, (S)-N-((4-(((1,4-dioxan-2-yl)methyl)amino)-3-fluoro-5-nitrophenyl)sulfonyl)-2-((1H-pyrrolo[2,3-b]pyridin-5-yl)oxy)-4-(4-((6-(4-chlorophenyl)spiro[3.5]non-6-en-7-yl)methyl)piperazin-1-yl)benzamide]	1.4 nM	2.46 nM	–
O=C(NS(=O)(=O)c1cc([N+](=O)[O-])c(NC[C@H]2COCCO2)cc1F)c1ccc(N2CCN(CC3=C(c4ccc(Cl)cc4)CC4(CCC4)CC3)CC2)cc1Oc1cnc2[nH]ccc2c1 [Cpd. No. 44, (S)-N-((4-(((1,4-dioxan-2-yl)methyl)amino)-2-fluoro-5-nitrophenyl)sulfonyl)-2-((1H-pyrrolo[2,3-b]pyridin-5-yl)oxy)-4-(4-((6-(4-chlorophenyl)spiro[3.5]non-6-en-7-yl)methyl)piperazin-1-yl)benzamide]	7160 nM	–	–
O=C(NS(=O)(=O)c1ccc(NC[C@@H]2COCCO2)c([N+](=O)[O-])c1)c1ccc(N2CCN(CC3=C(c4ccc(Cl)cc4)CC4(CC3)COC4)CC2)cc1Oc1cnc2[nH]ccc2c1 [compound 8, (R)-N-((4-(((1,4-dioxan-2-yl)methyl)amino)-3-nitrophenyl)sulfonyl)-2-((1H-pyrrolo[2,3-b]pyridin-5-yl)oxy)-4-(4-((6-(4-chlorophenyl)-2-oxaspiro[3.5]non-6-en-7-yl)methyl)piperazin-1-yl)benzamide]	3.7 nM	–	–
O=C(NS(=O)(=O)c1ccc(NCC2CCOCC2)c([N+](=O)[O-])c1)c1ccc(C2=CCN(CC3=C(c4ccc(Cl)cc4)CC4(CC3)COC4)CC2)cc1Oc1cnc2[nH]ccc2c1 [compound 9, 2-((1H-pyrrolo[2,3-b]pyridin-5-yl)oxy)-4-(1-((6-(4-chlorophenyl)-2-oxaspiro[3.5]non-6-en-7-yl)methyl)-1,2,3,6-tetrahydropyridin-4-yl)-N-((3-nitro-4-(((tetrahydro-2H-pyran-4-yl)methyl)amino)phenyl)sulfonyl)benzamide]	28 nM	–	–
O=C(NS(=O)(=O)c1ccc(NC[C@@H]2COCCO2)c([N+](=O)[O-])c1)c1ccc(N2CCN(CC3=C(c4ccc(Cl)cc4)CC4(CCC4)CC3)CC2)cc1Oc1cnc2[nH]ccc2c1 [compound 13, (R)-N-((4-(((1,4-dioxan-2-yl)methyl)amino)-3-nitrophenyl)sulfonyl)-2-((1H-pyrrolo[2,3-b]pyridin-5-yl)oxy)-4-(4-((6-(4-chlorophenyl)spiro[3.5]non-6-en-7-yl)methyl)piperazin-1-yl)benzamide]	2.8 nM	–	–
COCCOCCn1nc2cc(S(=O)(=O)NC(=O)c3ccc(N4CCN(CC5=C(c6ccc(Cl)cc6)CC6(CCC6)CC5)CC4)cc3Oc3cnc4[nH]ccc4c3)cc([N+](=O)[O-])c2c1F [compound 22, 2-((1H-pyrrolo[2,3-b]pyridin-5-yl)oxy)-4-(4-((6-(4-chlorophenyl)spiro[3.5]non-6-en-7-yl)methyl)piperazin-1-yl)-N-((3-fluoro-2-(2-(2-methoxyethoxy)ethyl)-4-nitro-2H-indazol-6-yl)sulfonyl)benzamide]	20 nM	58.9 nM	–
O=C(NS(=O)(=O)c1ccc(NC[C@H]2COCCO2)c([N+](=O)[O-])c1)c1cc(F)c(N2CCN(CC3=C(c4ccc(Cl)cc4)CC4(CCC4)CC3)CC2)cc1Oc1cnc2[nH]ccc2c1 [compound 26, (S)-N-((4-(((1,4-dioxan-2-yl)methyl)amino)-3-nitrophenyl)sulfonyl)-2-((1H-pyrrolo[2,3-b]pyridin-5-yl)oxy)-4-(4-((6-(4-chlorophenyl)spiro[3.5]non-6-en-7-yl)methyl)piperazin-1-yl)-5-fluorobenzamide]	–	–	IC50 (MV4;11 cell line): 6710 nM
O=C(NS(=O)(=O)c1ccc(NCC2CCOCC2)c([N+](=O)[O-])c1)c1ccc(N2CCN(CC3=C(c4ccc(Cl)cc4)CC4(CCC4)CC3)CC2)nc1Oc1cnc2[nH]ccc2c1 [compound 32, 2-((1H-pyrrolo[2,3-b]pyridin-5-yl)oxy)-6-(4-((6-(4-chlorophenyl)spiro[3.5]non-6-en-7-yl)methyl)piperazin-1-yl)-N-((3-nitro-4-(((tetrahydro-2H-pyran-4-yl)methyl)amino)phenyl)sulfonyl)nicotinamide]	1380 nM	–	–
